Where a name gives a salt, the structure may show the parent alone.
Target: ROCK2 (Homo sapiens, UniProt O75116)
Assay: ROCK assay: phosphorylation of FITC peptide substrate, LABCHIP 3000 mobility shift
Type: biochemical
Settings: 5 μM ATP, 1.5 μM peptide substrate; read-out: ROCK2 Activity (ROCK IC50 range)
In short: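 IC50 values come from curve-fitting percent kinase inhibition across a compound dilution series. The reaction is started with Rho kinase variant in HEPES pH 7.5 buffer with MgCl2, Brij-35 and DTT, with 5 μM ATP, 1.5 μM FITC-labelled peptide and under 2% DMSO. After EDTA quench, product and substrate are separated by microfluidic mobility shift.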

Sequence of ROCK2 (O75116 whole entry, species assumed): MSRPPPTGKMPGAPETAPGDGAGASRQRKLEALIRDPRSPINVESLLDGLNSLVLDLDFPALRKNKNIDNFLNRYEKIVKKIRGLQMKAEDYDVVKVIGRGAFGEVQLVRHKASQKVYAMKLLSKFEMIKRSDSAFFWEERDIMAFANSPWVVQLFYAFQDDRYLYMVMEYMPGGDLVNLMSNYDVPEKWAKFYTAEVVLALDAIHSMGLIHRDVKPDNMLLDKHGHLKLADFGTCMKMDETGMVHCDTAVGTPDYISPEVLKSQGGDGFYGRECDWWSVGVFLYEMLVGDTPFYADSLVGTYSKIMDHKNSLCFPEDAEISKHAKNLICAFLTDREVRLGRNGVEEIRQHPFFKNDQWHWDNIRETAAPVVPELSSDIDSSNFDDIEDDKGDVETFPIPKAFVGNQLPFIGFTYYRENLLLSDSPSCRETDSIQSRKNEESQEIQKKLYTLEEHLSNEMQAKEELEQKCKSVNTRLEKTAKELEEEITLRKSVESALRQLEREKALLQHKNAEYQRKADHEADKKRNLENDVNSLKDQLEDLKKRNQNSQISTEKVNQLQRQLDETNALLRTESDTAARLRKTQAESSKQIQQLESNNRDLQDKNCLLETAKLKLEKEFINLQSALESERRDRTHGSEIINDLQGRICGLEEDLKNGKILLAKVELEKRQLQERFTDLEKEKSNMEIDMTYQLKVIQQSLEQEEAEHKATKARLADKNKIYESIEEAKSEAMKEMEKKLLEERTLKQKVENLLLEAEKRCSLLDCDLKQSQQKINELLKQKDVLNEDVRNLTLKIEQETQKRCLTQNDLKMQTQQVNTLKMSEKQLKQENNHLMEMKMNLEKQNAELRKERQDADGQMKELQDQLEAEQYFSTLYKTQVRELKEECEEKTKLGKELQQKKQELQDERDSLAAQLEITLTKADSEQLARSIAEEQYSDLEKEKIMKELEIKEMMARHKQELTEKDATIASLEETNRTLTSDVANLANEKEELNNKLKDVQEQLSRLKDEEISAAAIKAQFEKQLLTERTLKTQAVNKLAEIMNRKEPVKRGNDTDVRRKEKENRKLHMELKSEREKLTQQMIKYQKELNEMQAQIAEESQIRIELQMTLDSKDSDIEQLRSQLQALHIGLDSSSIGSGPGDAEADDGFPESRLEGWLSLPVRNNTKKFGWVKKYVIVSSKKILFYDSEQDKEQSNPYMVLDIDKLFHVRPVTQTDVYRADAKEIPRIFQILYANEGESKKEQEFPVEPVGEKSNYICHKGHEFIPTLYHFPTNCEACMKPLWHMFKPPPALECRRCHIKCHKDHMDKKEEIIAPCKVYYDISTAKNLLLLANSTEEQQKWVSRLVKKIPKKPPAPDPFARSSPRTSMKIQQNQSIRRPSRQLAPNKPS

IC50 [nM] | SMILES
5.1 to 15 | [H][C@]1(c2n[nH]c(=O)c3ccccc32)C[C@]2(C[C@@H](NC(=O)c3cc4ccc(OC)cc4n3C)C2)C1 (stereo partly drawn) [Example 314, 6-methoxy-1-methyl-N-((aR)-6-(4-oxo-3,4-dihydrophthalazin-1-yl)spiro[3.3]heptan-2-yl)-1H-indole-2-carboxamide]
15.1 to 100 | COc1c(C(=O)NC2CC3(C2)CC(c2n[nH]c(=O)c4ccccc24)C3)nc2ccccn12 (stereo not drawn) [Example 124, 3-methoxy-N-((αR)-6-(4-oxo-3,4-dihydrophthalazin-1-yl)spiro[3.3]heptan-2-yl)imidazo[1,2-α]pyridine-2-carboxamide]
5.1 to 15 | [H][C@]1(c2n[nH]c(=O)c3ccccc32)C[C@]2(C[C@@H](NC(=O)c3ccc(NC=O)c(O)c3)C2)C1 (stereo partly drawn) [Example 311, 4-formamido-3-hydroxy-N-((aR)-6-(4-oxo-3,4-dihydrophthalazin-1-yl)spiro[3.3]heptan-2-yl)benzamide]
5.1 to 15 | COCc1ccc2c(C(=O)NC3CC4(C3)CC(c3n[nH]c(=O)c5ccccc35)C4)cnn2c1 [Example 209, 6-(methoxymethyl)-N-((aR)-6-(4-oxo-3,4-dihydrophthalazin-1-yl)spiro[3.3]heptan-2-yl)pyrazolo[1,5-a]pyridine-3-carboxamide]
2.01 to 5 | [H][C@]1(c2n[nH]c(=O)c3ccccc32)C[C@]2(C[C@@H](NC(=O)c3cnc4c(Cl)cccn34)C2)C1 (stereo partly drawn) [Example 382, 8-chloro-N-((aR)-6-(4-oxo-3,4-dihydrophthalazin-1-yl)spiro[3.3]heptan-2-yl)imidazo[1,2-a]pyridine-3-carboxamide]
0.2 to 2 | CC(C)(C)n1cc(-c2ccc3c(C(=O)NC4CC5(C4)CC(c4n[nH]c(=O)c6ccccc46)C5)cnn3c2)cn1 [Example 225, 6-(1-(tert-butyl)-1H-pyrazol-4-yl)-N-((aR)-6-(4-oxo-3,4-dihydrophthalazin-1-yl)spiro[3.3]heptan-2-yl)pyrazolo[1,5-a]pyridine-3-carboxamide]
2.01 to 5 | [H][C@]1(c2n[nH]c(=O)c3ccccc32)C[C@]2(C[C@@H](NC(=O)c3ccc(-c4cnn(C)c4)c(OC)c3)C2)C1 (stereo partly drawn) [Example 422, 3-methoxy-4-(1-methyl-1H-pyrazol-4-yl)-N-((aR)-6-(4-oxo-3,4-dihydrophthalazin-1-yl)spiro[3.3]heptan-2-yl)benzamide]
5.1 to 15 | O=C(NC1CC2(C1)CC(c1n[nH]c(=O)c3ccccc13)C2)c1cnn2cc(CN3CCCCC3)ccc12 [Example 202, N-((aR)-6-(4-oxo-3,4-dihydrophthalazin-1-yl)spiro[3.3]heptan-2-yl)-6-(piperidin-1-ylmethyl)pyrazolo[1,5-a]pyridine-3-carboxamide]
2.01 to 5 | O=C(NC1CC2(C1)CC(c1n[nH]c(=O)c3ccccc13)C2)c1cnn2cc(COCC3CCOCC3)ccc12 [Example 211, N-((aR)-6-(4-oxo-3,4-dihydrophthalazin-1-yl)spiro[3.3]heptan-2-yl)-6-(((tetrahydro-2H-pyran-4-yl)methoxy)methyl)pyrazolo[1,5-a]pyridine-3-carboxamide]
2.01 to 5 | [H][C@]1(c2n[nH]c(=O)c3ccccc32)C[C@]2(C[C@@H](NC(=O)c3ccc(-c4cn[nH]c4)cc3OC)C2)C1 (stereo partly drawn) [Example 419, 2-methoxy-N-((aR)-6-(4-oxo-3,4-dihydrophthalazin-1-yl)spiro[3.3]heptan-2-yl)-4-(1H-pyrazol-4-yl)benzamide]
2.01 to 5 | O=C(NC1CC2(C1)CC(c1n[nH]c(=O)c3ccccc13)C2)c1cnn2cc(OCCN3CCOCC3)ccc12 [Example 68, 6-(2-morpholinoethoxy)-N-((aR)-6-(4-oxo-3,4-dihydrophthalazin-1-yl)spiro[3.3]heptan-2-yl)pyrazolo[1,5-a]pyridine-3-carboxamide]
100 to 2100 | COc1ccc(C(=O)NC2CC3(C2)CC(c2n[nH]c(=O)c4ccccc24)C3)nc1 [Example 351, 5-methoxy-N-((aR)-6-(4-oxo-3,4-dihydrophthalazin-1-yl)spiro[3.3]heptan-2-yl)picolinamide]
5.1 to 15 | COc1ccn2ncc(C(=O)NC3CC4(C3)CC(c3n[nH]c(=O)c5ccccc35)C4)c2c1 [Example 64, 5-methoxy-N-((aR)-6-(4-oxo-3,4-dihydrophthalazin-1-yl)spiro[3.3]heptan-2-yl)pyrazolo[1,5-a]pyridine-3-carboxamide]

The next lines start with the molecule.

SMILES | IC50 [nM]
O=C(NC1CC2(C1)CC(c1n[nH]c(=O)c3ccccc13)C2)C1Cc2cc(Br)ccc2N1 [Example 468, 5-bromo-N-((aR)-6-(4-oxo-3,4-dihydrophthalazin-1-yl)spiro[3.3]heptan-2-yl)indoline-2-carboxamide,TFA] | 100 to 2100
[H][C@]1(c2n[nH]c(=O)c3ccccc32)C[C@]2(C[C@@H](NC(=O)c3nc(-c4ccncc4)sc3C)C2)C1 (stereo partly drawn) [Example 365, 5-methyl-N-((aR)-6-(4-oxo-3,4-dihydrophthalazin-1-yl)spiro[3.3]heptan-2-yl)-2-(pyridin-4-yl)thiazole-4-carboxamide] | 15.1 to 100
[H][C@]1(c2n[nH]c(=O)c3ccccc32)C[C@]2(C[C@@H](NC(=O)c3cn4ccc(-c5cnc(C)s5)cc4n3)C2)C1 (stereo partly drawn) [Example 454, 7-(2-methylthiazol-5-yl)-N-((aR)-6-(4-oxo-3,4-dihydrophthalazin-1-yl)spiro[3.3]heptan-2-yl)imidazo[1,2-a]pyridine-2-carboxamide] | 15.1 to 100
CC(C)(C)n1cc(-c2ccc3c(c2)CCN3C(=O)NC2CC3(C2)CC(c2n[nH]c(=O)c4ccccc24)C3)cn1 [Example 242, 5-(1-(tert-butyl)-1H-pyrazol-4-yl)-N-((aR)-6-(4-oxo-3,4-dihydrophthalazin-1-yl)spiro[3.3]heptan-2-yl)indoline-1-carboxamide] | 2.01 to 5
[H][C@]1(c2n[nH]c(=O)c3ccccc32)C[C@]2(C[C@@H](NC(=O)c3cnc4cc(OC5CCC(F)(F)CC5)ccn34)C2)C1 (stereo partly drawn) [Example 471, 7-((4,4-difluoro-cyclohexyl)oxy)-N-((aR)-6-(4-oxo-3,4-dihydro-phthalazin-1-yl)spiro[3.3]heptan-2-yl)imidazo[1,2-a]pyridine-3-carboxamide, TFA] | 2.01 to 5
O=C(C1CC2(C1)CC(c1n[nH]c(=O)c3ccccc13)C2)N1CCc2ccccc21 (stereo not shown) [Example 46, 4-(6-(Indoline-1-carbonyl)spiro[3.3]heptan-2-yl)phthalazin-1(2H)-one(2H)-one] | 100 to 2100
O=C(CC1CC2(C1)CC(c1n[nH]c(=O)c3ccccc13)C2)N1CCc2ccccc21 (stereo not shown) [Example 52, 4-(6-(2-(Indolin-1-yl)-2-oxoethyl)spiro[3.3]heptan-2-yl)phthalazin-1(2H)-one] | 15.1 to 100
[H][C@]1(c2n[nH]c(=O)c3ccccc32)C[C@]2(C[C@@H](NC(=O)c3cccc(-n4ccnc4)c3)C2)C1 (stereo partly drawn) [Example 352, 3-(1H-imidazol-1-yl)-N-((aR)-6-(4-oxo-3,4-dihydrophthalazin-1-yl)spiro[3.3]heptan-2-yl)benzamide] | 15.1 to 100
Cn1cc(-c2ccc(NC(=O)NC3CC4(C3)CC(c3n[nH]c(=O)c5ccccc35)C4)cc2)c(C(F)(F)F)n1 [Example 232, 1-(4-(1-methyl-3-(trifluoromethyl)-1H-pyrazol-4-yl)phenyl)-3-((aR)-6-(4-oxo-3,4-dihydrophthalazin-1-yl)spiro[3.3]heptan-2-yl)urea] | 5.1 to 15

Source: patent US9902702B2, “Spirocycloheptanes as inhibitors of rock” (BRISTOL-MYERS SQUIBB COMPANY, priority 2014, dated 2018)
